These results are taken from PubChem BioAssay (NCI).

Some test systems named below: MCF7 breast; LOX IMVI melanoma; BT-549 breast; A498 renal; ACHN renal; CAKI-1 renal; EKVX NSCLC; CCRF-CEM leukemia; TK-10 renal; MDA-MB-435.
Test in all cases: NCI tumour cell line growth inhibition, 48 h

Molecules are shown by their SMILES.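 Five compound concentrations were applied to cells in 96-well plates for 48 hours; endpoints were derived by simple linear interpolation of the resulting dose-response curve. GI50 = concentration required for 50% inhibition of growth. TGI: concentration producing complete growth inhibition.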

As for `O=C(O)c1cc(O)c2c(c1)C(C1c3cc(C(=O)O)cc(O)c3C(=O)c3c(OC4OC(CO)C(O)C(O)C4O)cccc31)c1cccc(OC3OC(CO)C(O)C(O)C3O)c1C2=O` (configuration not stated), the GI50 with MCF7 breast, in the experiment with LOX IMVI melanoma, in the experiment on BT-549 breast, in the experiment on A498 renal, in the experiment with ACHN renal and in the experiment with CAKI-1 renal was greater than 100 µM in each case. In addition, the GI50 in the experiment on EKVX NSCLC, in the experiment on CCRF-CEM leukemia, in the experiment with TK-10 renal and with MDA-MB-435 was greater than 100 µM each time. The TGI in the experiment on MCF7 breast, in the experiment on LOX IMVI melanoma, with BT-549 breast, with A498 renal, in the experiment with ACHN renal and in the experiment on CAKI-1 renal was greater than 100 µM each time. The TGI with EKVX NSCLC, in the experiment on CCRF-CEM leukemia, in the experiment with TK-10 renal and in the experiment with MDA-MB-435 was greater than 100 µM each time.

`O=c1[nH]c2cc(Cl)ccc2n1C1CCN(CCCC(c2ccc(F)cc2)c2ccc(F)cc2)CC1`: the GI50 is 1.35 µM in the experiment with MCF7 breast; 1.56 µM in the experiment with LOX IMVI melanoma; 1.32 µM in the experiment with BT-549 breast; 1.34 µM with A498 renal; 1.54 µM in the experiment with ACHN renal; 0.488 µM with CAKI-1 renal. Further, the GI50 is 1.45 µM in the experiment on EKVX NSCLC, 2.31 µM with CCRF-CEM leukemia, 1.94 µM in the experiment on TK-10 renal and 1.32 µM with MDA-MB-435. Also, the TGI came to 2.84 µM with MCF7 breast; 2.89 µM in the experiment with LOX IMVI melanoma; 2.92 µM with BT-549 breast; 2.74 µM with A498 renal; 2.87 µM with ACHN renal; 1.97 µM with CAKI-1 renal. In addition, the TGI in the experiment with EKVX NSCLC is 3.38 µM; in the experiment on CCRF-CEM leukemia it was 6.98 µM; in the experiment on TK-10 renal, 3.55 µM; with MDA-MB-435, 2.63 µM.

On to `CCN(CC)CC(C)(C)C(=O)/C=C/c1ccc(Cl)c(Cl)c1`, for which the GI50 was 0.959 µM with MCF7 breast; 0.774 µM with LOX IMVI melanoma; 1.72 µM with BT-549 breast; 1.63 µM in the experiment on A498 renal; 1.61 µM in the experiment on ACHN renal; 1.35 µM in the experiment with CAKI-1 renal. Also, the GI50 in the experiment on EKVX NSCLC was 1.69 µM; in the experiment on CCRF-CEM leukemia, 1.14 µM; in the experiment with TK-10 renal it was 1.67 µM; with MDA-MB-435, 1.6 µM. Further, the TGI in the experiment on MCF7 breast was 2.8 µM; in the experiment with LOX IMVI melanoma it was 2.03 µM; in the experiment on BT-549 breast, 3.12 µM; in the experiment with A498 renal, 3.55 µM; with ACHN renal it was 3.09 µM; in the experiment on CAKI-1 renal, 2.74 µM. Moreover, the TGI with EKVX NSCLC is 3.1 µM; in the experiment with CCRF-CEM leukemia it was 4.22 µM; in the experiment with TK-10 renal it was 3.04 µM; in the experiment with MDA-MB-435, 3.28 µM.

On to `c1ccc2c3ccn4cc5c(cc4c-3nc2c1)CCCC5`, for which the GI50 with MCF7 breast was 2.5 µM; in the experiment with BT-549 breast, 11.3 µM; in the experiment on A498 renal, 11.6 µM; in the experiment with ACHN renal it was 4.75 µM; with CAKI-1 renal, 34.9 µM; in the experiment on EKVX NSCLC, 3.88 µM. In addition, the GI50 with CCRF-CEM leukemia is 3.52 µM; in the experiment on TK-10 renal, 12.8 µM; with MDA-MB-435, 1.56 µM. Besides, the TGI with MCF7 breast was 11 µM; in the experiment on BT-549 breast, 59.6 µM; in the experiment with A498 renal, 24.1 µM; in the experiment with ACHN renal, 17.5 µM; in the experiment on CAKI-1 renal, greater than 100 µM; with EKVX NSCLC it was 19.5 µM. The TGI is greater than 100 µM in the experiment on CCRF-CEM leukemia, 26 µM in the experiment with TK-10 renal and 4.19 µM in the experiment on MDA-MB-435.

Turning to `COc1ccc(C2C(C#N)=C(N)OC3=C2COc2ccc(F)cc23)cc1OC` (configuration not stated), the GI50 in the experiment on MCF7 breast is 32.9 µM; in the experiment with LOX IMVI melanoma, 11.3 µM; with BT-549 breast it was 28.9 µM; with A498 renal it was 28.3 µM; in the experiment on ACHN renal it was 12.3 µM; in the experiment with CAKI-1 renal, 16.5 µM. Also, the GI50 is 17.8 µM with EKVX NSCLC, 47.5 µM in the experiment with CCRF-CEM leukemia, 19.4 µM in the experiment with TK-10 renal and 23.6 µM in the experiment on MDA-MB-435. For the same compound, the TGI is greater than 100 µM with MCF7 breast; 24.1 µM in the experiment with LOX IMVI melanoma; greater than 100 µM with BT-549 breast; 59.1 µM with A498 renal; 37.2 µM with ACHN renal; 47.3 µM in the experiment on CAKI-1 renal. The TGI was greater than 100 µM in the experiment on EKVX NSCLC, greater than 100 µM with CCRF-CEM leukemia, 60.4 µM with TK-10 renal and 62.3 µM in the experiment on MDA-MB-435.

For the compound `Cc1c(C2Nc3ccccc3C2C)[nH]c2ccccc12` (configuration not stated), the GI50 in the experiment with MCF7 breast was 4.26 µM; in the experiment with BT-549 breast it was 13.8 µM; with A498 renal, 10.7 µM; in the experiment on ACHN renal it was 10.1 µM; with CAKI-1 renal, 2.45 µM; in the experiment on CCRF-CEM leukemia, 0.801 µM. Moreover, the values for the GI50 with TK-10 renal and in the experiment with MDA-MB-435 were 17.4 µM and 10.6 µM, respectively. The TGI in the experiment with MCF7 breast is 27.8 µM; in the experiment on BT-549 breast, 34.5 µM; in the experiment with A498 renal, 23.1 µM; with ACHN renal, 23.1 µM; with CAKI-1 renal, 22.8 µM; in the experiment with CCRF-CEM leukemia it was 46.6 µM. Also, the values for the TGI in the experiment on TK-10 renal and in the experiment on MDA-MB-435 were 34.2 µM and 24.6 µM, respectively.

As for `O=C(N/N=C\c1cc(Br)ccc1O)c1ccncc1`, the GI50 with MCF7 breast was 1.55 µM; with LOX IMVI melanoma, 1.07 µM; in the experiment on BT-549 breast it was 2.57 µM; with A498 renal, 5.82 µM; with ACHN renal it was 2.37 µM; in the experiment with CAKI-1 renal, 1.04 µM. For the same compound, the GI50 in the experiment with EKVX NSCLC was 1.8 µM; in the experiment on CCRF-CEM leukemia it was 0.423 µM; in the experiment on MDA-MB-435 it was 5.36 µM. The TGI is 7.25 µM with MCF7 breast; 94.7 µM with LOX IMVI melanoma; 40.8 µM in the experiment on BT-549 breast; 77.3 µM in the experiment on A498 renal; greater than 100 µM in the experiment on ACHN renal; greater than 100 µM in the experiment on CAKI-1 renal. Besides, the TGI is 38.5 µM in the experiment on EKVX NSCLC, greater than 100 µM in the experiment on CCRF-CEM leukemia and greater than 100 µM in the experiment with MDA-MB-435.
